Assays:
[1] = Randomized, crossover, fed/fasted single-dose pharmacokinetic study of oral sustained release tablets of compound (3) in healthy adult subjects; assay type: in vivo, human
Method: A randomized, crossover, fed/fasted single-dose study of the safety, tolerability, and pharmacokinetics of oral administration of 1-{[(α-isobutanoyloxyethoxy)carbonyl]aminomethyl}-1-cyclohexane acetic acid (3) in healthy adult subjects was conducted. The oral sustained release dosage form of Example 6 (uncoated) was used in this study. The study was designed to evaluate the performance of this formulation in humans in comparison with the commercial gabapentin capsule formulation (Neurontin®, Pfizer). Twelve healthy adult volunteers (7 males and 5 females) participated in the study. Mean body weight was 75.6 kg. All subjects received two different treatments in a random order with a one-week washout between treatments. The two treatments were: A) a single oral dose of Example 6 tablets (2×600 mg) after an overnight fast; and B) a single oral dose of Example 6 tablets (2×600 mg) after a high fat breakfast.
Blood and plasma samples were collected from all subjects prior to dosing, and at 0.5, 1, 1.5, 2, 3, 4, 6, 8, 12, 18, 24, and 36 hours after dosing. Urine samples were collected from all subjects prior to dosing, and complete urine output was obtained at the 0-4 h, 4-8 h, 8-12 h, 12-18 h, 18-24 h, and 24-36 h intervals after dosing. Blood samples were quenched immediately with methanol and stored frozen at […]. Sample aliquots were prepared for analysis of gabapentin and compound (3) using sensitive and specific LC/MS/MS methods.

[2] = cited from earlier work

CC(OC(=O)NCC1(CC(=O)O)CCCCC1)OC(=O)C(C)C (stereo not drawn) [compound (3), 1-{[(α-Isobutanoyloxyethoxy)carbonyl]aminomethyl}-1-Cyclohexane Acetic Acid]
AUC of compound (3) in blood as % of corresponding AUC of gabapentin in blood ([1]; fasted subjects): 0.3% | Maximum intact compound (3) concentration as % of corresponding peak gabapentin concentration ([1]; fasted subjects): approximately 1.0% | AUC of compound (3) in blood as % of corresponding AUC of gabapentin in blood ([1]; fed subjects): less than 0.1% | Maximum intact compound (3) concentration as % of corresponding peak gabapentin concentration ([1]; fed subjects): approximately 0.3%

NCC1(CC(=O)O)CCCCC1 [gabapentin]
Typical Tmax of immediate release gabapentin [2]: 2 to 4 h

Reference: patent US20080161393A1, “Use of prodrugs of GABA analogs for treating disease” (priority 2006, published 2008)
